What follows are compounds tested against T1, purified recombinant human Aggrecanase-1 (rAgg1) (Homo sapiens, UniProt O75173) (assay: In vitro fluorescence screen for Aggrecanase-1 inhibitors). Details: Table 1; read-out: Agg1 IC50.
T1 sequence (O75173 213-837): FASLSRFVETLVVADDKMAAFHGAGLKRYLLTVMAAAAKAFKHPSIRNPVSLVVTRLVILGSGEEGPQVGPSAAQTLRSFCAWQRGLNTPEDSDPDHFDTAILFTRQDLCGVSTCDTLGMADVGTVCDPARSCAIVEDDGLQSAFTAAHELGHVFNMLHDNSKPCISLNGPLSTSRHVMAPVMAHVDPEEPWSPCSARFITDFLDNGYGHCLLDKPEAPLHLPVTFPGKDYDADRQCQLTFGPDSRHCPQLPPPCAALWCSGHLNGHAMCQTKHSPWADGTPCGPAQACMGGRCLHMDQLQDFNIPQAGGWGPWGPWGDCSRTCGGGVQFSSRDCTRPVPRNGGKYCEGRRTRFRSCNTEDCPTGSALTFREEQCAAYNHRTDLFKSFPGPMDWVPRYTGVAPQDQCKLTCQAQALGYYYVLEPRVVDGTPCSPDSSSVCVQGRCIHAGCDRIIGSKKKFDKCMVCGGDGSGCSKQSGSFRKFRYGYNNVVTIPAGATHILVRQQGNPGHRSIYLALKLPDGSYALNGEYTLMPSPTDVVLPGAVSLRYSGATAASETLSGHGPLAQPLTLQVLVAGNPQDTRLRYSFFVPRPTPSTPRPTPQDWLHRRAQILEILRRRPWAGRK
Format: biochemical

| SMILES | IC50 |
| --- | --- |
| O=C(O)CCC(NC(=O)c1ccc(-c2ccccc2)cc1)C(=O)O (stereo in doubt) [Example 2, N-(1,1′-biphenyl-4-ylcarbonyl)-D-glutamic acid] | 111 nM |
| O=C(O)CC[C@H](NC(=O)c1ccc(Nc2ncccn2)cc1)C(=O)O [Example 1, N-[4-(pyrimidin-2-ylamino)benzoyl]-L-glutamic acid] | 900 nM |
| NC(=O)[C@H](CCC(=O)O)NC(=O)c1ccc(Nc2ncccn2)cc1 [Example 3, N^2-[4-(pyrimidin-2-ylamino)benzoyl]-L-alpha-glutamine] | 12700 nM |
| NC(=O)[C@@H](CCC(=O)O)NC(=O)c1ccc(-c2ccccc2)cc1 [Example 4, N^2-(1,1′-biphenyl-4-ylcarbonyl)-D-alpha-glutamine] | 1100 nM |
| O=C(O)CC[C@H](NC(=O)c1ccc(-c2ccccc2)cc1)C(=O)NCCCCO [Example 5, N^2-(1,1′-biphenyl-4-ylcarbonyl)-N^1-(4-hydroxybutyl)-L-alpha-glutamine] | 1800 nM |
| CC(C)(CO)NC(=O)[C@H](CCC(=O)O)NC(=O)c1ccc(-c2ccccc2)cc1 [Example 6B, N^2-(biphenyl-4-ylcarbonyl)-N^1-(2-hydroxy-1,1-dimethylethyl)-L-α-glutamine] | 300 nM |
| CC(C)(C)CC(C)(C)NC(=O)[C@H](CCC(=O)O)NC(=O)c1ccc(-c2ccccc2)cc1 [Example 6C, N^2-(biphenyl-4-ylcarbonyl)-N^1-(1,1,3,3-tetramethylbutyl)-L-α-glutamine] | 150 nM |
| CC(C)(Cc1ccccc1)NC(=O)[C@H](CCC(=O)O)NC(=O)c1ccc2c(c1)Cc1ccccc1-2 [Example 6D, N^1-(1,1-dimethyl-2-phenylethyl)-N^2-(9H-fluoren-2-ylcarbonyl)-L-α-glutamine] | 45 nM |
| CC(C)(Cc1ccc(Cl)cc1)NC(=O)[C@H](CCC(=O)O)NC(=O)c1ccc2c(c1)Cc1ccccc1-2 [Example 6E, N^1-[2-(4-chlorophenyl)-1,1-dimethylethyl]-N^2-(9H-fluoren-2-ylcarbonyl)-L-α-glutamine] | 56 nM |
| O=C(O)CC[C@H](NC(=O)c1ccc(-c2ccccc2)cc1)C(=O)NCc1cc(F)cc(F)c1 [Example 8AA, N^2-(1,1′-biphenyl-4-ylcarbonyl)-N^1-(3,5-difluorobenzyl)-L-α-glutamine] | 370 nM |
| Nc1ccc(CNC(=O)[C@H](CCC(=O)O)NC(=O)c2ccc(-c3ccccc3)cc2)cc1 [Example 8AAAA, N^1-(4-aminobenzyl)-N^2-(1,1′-biphenyl-4-ylcarbonyl)-L-α-glutamine] | 100 nM |
| O=C(O)CC[C@H](NC(=O)c1ccc(-c2ccccc2)cc1)C(=O)NCCN1CCOCC1 [Example 8DDD, N^2-(biphenyl-4-ylcarbonyl)-N^1-(2-morpholin-4-ylethyl)-L-α-glutamine] | 300 nM |
| Nc1cccc(CNC(=O)[C@H](CCC(=O)O)NC(=O)c2ccc(-c3ccccc3)cc2)c1 [Example 8DDDD, N^1-(3-aminobenzyl)-N^2-(1,1′-biphenyl-4-ylcarbonyl)-L-α-glutamine] | 110 nM |
| Cc1ccccc1CNC(=O)[C@H](CCC(=O)O)NC(=O)c1ccc(-c2ccccc2)cc1 [Example 8EE, N^2-(1,1′-biphenyl-4-ylcarbonyl)-N^1-(2-methylbenzyl)-L-α-glutamine] | 200 nM |
| CCN(CC)C(=O)[C@H](CCC(=O)O)NC(=O)c1ccc(-c2ccccc2)cc1 [Example 8EEE, N^2-(biphenyl-4-ylcarbonyl)-N^1,N^1-diethyl-L-α-glutamine] | 7900 nM |
| O=C(O)CC[C@H](NC(=O)c1ccc(-c2ccccc2)cc1)C(=O)NCc1ccccc1 [Example 8EEEE, N^1-benzyl-N^2-(1,1-biphenyl-4-ylcarbonyl)-L-α-glutamine] | 400 nM |

Same assay, conditions: Table 2; read-out: Agg1 IC50

| SMILES | IC50 |
| --- | --- |
| Cc1cccc(CNC(=O)[C@H](CCC(=O)O)NC(=O)c2ccc3c(c2)Cc2ccccc2-3)c1 [Example 8CCCCC, N^2-(9H-fluoren-2-ylcarbonyl)-N^1-(3-methylbenzyl)-L-α-glutamine] | 107 nM |
